Assay results published in patent US20250041377A1, “PHARMACEUTICAL USE” (ENLITISA (SHANGHAI) PHARMACEUTICAL CO., LTD., priority 2018, published 2025).
Where a SMILES comes first, the peptide text is derived from it. Where no end group is shown, it is not given here. [ ]: non-standard residue; d: D form. Dopa = N[C@@H](Cc1ccc(O)c(O)c1)C(=O)O; Hyp = O=C(O)[CH]1C[CH](O)CN1; 3Hyp = 3-hydroxyproline

Experiments:
Assay type in all cases: in vivo, C57BL/6 mice
[1] = system: carrageenan-induced acute inflammation in subcutaneous air pouch; assay: Air pouch model, histological scores of skin biopsies; design: Fibroplastic proliferation score: scale not given here; conditions: for Fibroplastic proliferation score / Inflammation score / Edema Score: 0.6 mg/mL, 300 μg/mouse injected into air pouch 1 hour before carrageenan; for Inflammation score: HE slices scored 1-3 points; for Edema Score: scored 1-3 points; for Sum: sum of scores, 300 μg/mouse into air pouch
Experimental: Healthy adult male C57BL/6 mice weighing between 20 and 30 g were supplied by Nanjing Biomedicial Research Institute of Nanjing University (NBRI). Prior to any experiments being conducted, mice were housed under standardized conditions (at a constant temperature of 22±2° C., with alternating 12 hour periods of light and darkness), and were fed on a standard mouse diet with water, for about a week.
General anesthesia was induced using intraperitoneal 3% chloral hydrate (Sinopharm Chemical Reagent Co., Ltd., Shanghai, China; 1 mL/10 g of body weight). The hair of the entire dorsum was shaved and depilated 1 day before sterile air injection.
Air pouches were produced by subcutaneous injection of sterile air (5 mL) into the intrascapular area of the mice. After three days, another injection of air (3 mL) was performed to maintain the pouches. In order to induce acute inflammation, three days after this final injection, animals received an injection of sterile carrageenan solution (CP Kelco, Taixing, Jiangsu Province, China. 1%, 0.5 mL; produced by adding 0.1 g of carrageenan powder into a beaker containing 10 mL of 0.9% saline solution and stirring). Mice were pre-treated with test samples or vehicle 1 hour before and 23 hours after the carrageenan injection into the subcutaneous air pouch. Animals were sacrificed 24 hours after the carrageenan injection.
Skin biopsies were taken from the air pouches. A part of the biopsy was fixed in formalin (produced by adding ultra pure water to 50 mL of a 40% formaldehyde solution (Nanchang Rain Dew Experimental Equipment Co., Ltd., Nanchang, Hubei Province, China) up to a total volume of 500 mL) and analyzed by histological embedding in paraffin wax, sectioning and staining.
After conducting some preliminary experiments to validate the model, an experiment was conducted in which mice were treated by administering test samples or vehicle in accordance with Table 1 below.
All the substances listed in Table 1 were administrated topically by directly injecting into the air pouches.
The histological specimens were analyzed and an inflammation score, an activity score (i.e. the number and density of neutrophils shown in pathological slides, indicating the degree of inflammation and, in the case of open wound and infective diseases, the degree of infection), an edema score and a fibroblast proliferation score were estimated as follows.
The HE stained slices were observed under an optical microscope and were scored (1, 2 or 3 points) according to the perceived inflammation level (in cases showing only a small amount of inflammatory cells scattered in the area-1 point (mild); in cases where many inflammatory cells were observed-2 points (moderate); and, in cases with diffuse infiltration-3 points (severe). A similar scoring system was employed for edema levels (3 points for most severe and 1 point for mild) after overall observation. Scores for neutrophils employed the same methodology as that employed for inflammatory cells.

[2] = system: full thickness skin wound on the back; assay: Acute wound model, remaining wound area; conditions: for ratio of remaining wound area of initial wound: ± SD
Experimental: 6-8 weeks old male C57BL/6 mice were supplied by Changzhou Cvens Experimental Animal Co. Ltd (Changzhou, Jiangsu Province, China). Prior to any experiments being conducted, mice were housed under standardized conditions (at a constant temperature of 22±2° C., with alternating 12 hour periods of light and darkness), and were fed on a standard mouse diet with water, for about a week.
General anesthesia was induced using intraperitoneal 3% chloral hydrate (1 mL/10 g of body weight). The hair on the back was shaved by a baby hair shaver and depilated with cream. The skin area was wiped and sterilized with 75% alcohol twice.
An EMS skin biopsy punch (Electron Microscopy Sciences, P.O. Box 550, 1560 Industry Road, Hatfield, PA, USA) with a 18 mm diameter was used to make a round wound on the back. The full thickness of skin was removed and the depth of the wound reached the fascia. Wounds were left open without a suture.
(§1) The model group was given same amount of normal saline. There were 8 mice in each group.
Recombinant Human Epidermal Growth Factor (rhEGF, Shanghai Haohai Biological Technology Co. Ltd, 23/F, Shanghai, China) was purchased and prepared according to the manufacturer's instructions. The lyophilized rhEGF powder (100000 IU/vial) was dissolved in 20 mL of normal saline to make a solution with a concentration of 5000 IU/mL. The working dose of rhEGF for this experiment was 1285 IU/wound.
For this experiment, Compound A was also obtained from GL Biochem (Shanghai) Ltd. The peptide powders were stored at −20° C. and dissolved in saline at concentrations of 61.8 μg/mL (Compound A), and 61 μg/mL (Compound B). 50 μL of the solutions were applied onto the wound surfaces.
Wounds were dressed with gauze and transparent dresser after drug administration. Photographs were taken for each wound every other day from Day 0. Photos were scanned into a computer, and wound areas calculated using ImageJ image analysis software (National Institutes of Health, […]).
The unhealed wound area was expressed as a percentage of the original wound area: […]
where A0 and At refer to the initial area at Day 0 and the wound area at the date of measurement (time t), respectively.

[3] = system: Hyp, VEGF and TGF-β1 in wound tissue; assay: Acute wound model, ELISA of wound tissue; conditions: for wound Hyp content (Mean): indicator of collagen regeneration; for TGF-β1 content (Mean): wound tissue
Text: as §1
Samples were taken at Day 4 and Day 7 post-wound infliction. The mice were sacrificed and the wound tissue taken by the same biopsy punch used to create the wound. Then 5 mm of tissue was cut off from the center of the sample and was preserved in 10% neutral buffered formalin (Nanchang Rain Dew Experimental Equipment Co., Ltd., Nanchang, Hubei Province, China), and analyzed by histological embedding (HE) in paraffin wax, sectioning and staining.
The rest of the samples were stored at −80° C. for further analysis. Tissue was cut into small pieces and liquid nitrogen was added to increase brittleness. 9 mL of normal saline was added to 1 g of tissue, which was then ground using a Tissuelyser (Shanghai Jingxin Industrial Development Co., Ltd., Shanghai, China) at 55 Hz for 60 seconds, followed by centrifuging at 8000 rpm for 10 minutes at 4° C.
The supernatant was collected, and the extracted protein was used for ELISA analysis using standard ELISA test kits and an ELISA reader (SH-1000 Hitachi, Japan). Vascular endothelial growth factor (VEGF), transforming growth factor beta 1 (TGF-β1) and hydroxyproline (Hyp) were assayed. The ELISA kits were purchased from Beijing 4A Biotech Co., Ltd. (Beijing, China).

[4] = Day 0, topical 50 μL/wound once daily, rhEGF 1285 IU/mouse, Compound A 3.09 μg/mouse, Compound B 3.05 μg/mouse

## CC(N)C(=O)NC(CCCCN)C(=O)N1CCCC1C(=O)NC(CO)C(=O)NC(Cc1ccc(O)cc1)C(=O)N1CC(O)CC1C(=O)N1CC(O)CC1C(=O)NC(C(=O)NC(Cc1ccc(O)cc1)C(=O)NC(CCCCN)C(=O)O)C(C)O (stereo not drawn) [Compound B, Ala-Lys-Pro-Ser-Tyr-Hyp-Hyp-Thr-Tyr-Lys] (H-AKPSY[Hyp][Hyp]TYK-OH; configuration not given here)
[1]
  Fibroplastic proliferation score: 1.00
  Inflammation score: 1.6
  Edema Score: 1.2
  Sum: 2.8
[2]; [4]
  ratio of remaining wound area of initial wound: 79.4 ± 3.4%
[2]; Day 1, topical once daily
  ratio of remaining wound area of initial wound: 100 ± 4.5%
[2]; Day 2, topical once daily
  ratio of remaining wound area of initial wound: 96.7 ± 5.6%
[2]; Day 3, topical once daily
  ratio of remaining wound area of initial wound: 76.7 ± 4.8%
[2]; Day 4, topical once daily
  ratio of remaining wound area of initial wound: 66.5 ± 1.4%
[2]; Day 4, versus model group
  improvement rate: about 10%
[2]; Day 5, topical once daily
  ratio of remaining wound area of initial wound: 55.8 ± 1.3%
[2]; Day 6, topical once daily
  ratio of remaining wound area of initial wound: 51.9 ± 1.7%
[3]; Day 4
  wound Hyp content (Mean): 2.039 µg/mg
  TGF-β1 content (Mean): 20571.8 pg/g
[3]; Day 7
  wound Hyp content (Mean): 2.810 µg/mg
  TGF-β1 content (Mean): 18659.6 pg/g
[3]; in comparison with model group
  increase of VEGF production in the wounded tissue: about 56.7%

## Ala-Lys-Pro-Ser-Tyr-Hyp-Hyp-Thr-DOPA-Lys (AKPSY[3Hyp][Hyp]T[Dopa]K; listed as Mytilus edulis) [Compound A]
[1]
  Fibroplastic proliferation score: 0.2
  Inflammation score: 1.6
  Edema Score: 1.8
  Sum: 3.4
[2]; [4]
  ratio of remaining wound area of initial wound: 77.2 ± 4.1%
[2]; Day 1, topical once daily
  ratio of remaining wound area of initial wound: 100 ± 17.1%
[2]; Day 2, topical once daily
  ratio of remaining wound area of initial wound: 81.2 ± 11.2%
[2]; Day 3, topical once daily
  ratio of remaining wound area of initial wound: 74.2 ± 0.9%
[2]; Day 4, topical once daily
  ratio of remaining wound area of initial wound: 60.9 ± 7.3%
[2]; Day 5, topical once daily
  ratio of remaining wound area of initial wound: 50.5 ± 11.3%
[2]; Day 6, topical once daily
  ratio of remaining wound area of initial wound: 45.8 ± 4.7%
[3]; Day 4
  wound Hyp content (Mean): 3.676 µg/mg
  TGF-β1 content (Mean): 11866.2 pg/g
[3]; Day 7
  wound Hyp content (Mean): 2.694 µg/mg
  TGF-β1 content (Mean): 18074.8 pg/g
